From US11564923B2, “Compounds and pharmaceutical compositions thereof for the treatment of inflammatory disorders” (Galapagos NV, priority 2017, dated 2023)

Experiments:
[1] = test system: IFNα activation of STAT1 in PBMC; experiment: IFNα activation of STAT1 in PBMC; format: cell-based; details: Homo sapiens; IFNα activation of STAT1 in PBMC; average IC50; read-out: IFNα signaling inhibitory potency IC50
Method in brief: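 Human PBMC, with red cells lysed by NH4Cl, were pre-treated with compound for 30 min at 37 °C and 5% CO2. They were then stimulated for 30 min with recombinant human IFNα at 5 ng/mL final.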

[2] = test system: IL-12 activation of STAT4 in NK-92 cells; experiment: IL-12 activation of STAT4 in NK-92 cells using MSD as readout; format: cell-based; details: Homo sapiens, NK92; NK-92 cells, rhIL-12 25 ng/mL, MSD readout; read-out: IL12 pSTAT4 IC50
Experimental: IL-2 is added freshly to the medium with each medium refreshment step. Cells are cultured in a humidified incubator at 37° C. 5% CO2.
NK-92 cells are pre-incubated with test compounds or vehicle for 30 min at 37° C. 5% CO2. […] NK-92 cells are triggered with rhIL-12 for 45 min at 37° C. 5% CO2.
After 45 min of cytokine stimulation the cells are lysed by addition of 50 μL ice-cold lysis buffer (supplemented with the MSD kit). Plates are frozen at −80° C. for minimal 1 hour to lyse the cells completely. After thawing the levels of phospho-STAT4 are quantified using the Phospho-STAT4 (Tyr693) kit (MSD, Catalogue number K150PAD-2) according to the manufacturer's instructions. Electroluminescent signal is measured on the MSD reader.
The percentage inhibition is calculated as: […]
RLU (trigger/veh): Relative lumescent signal determined in presence of vehicle and trigger
RLU (test compound): Relative luminescent signal determined in presence of test compounds)
PIN values are plotted for compounds tested in dose-response and IC50 values are derived using LIMS Software applying non-linear regression (sigmoidal) curve fitting. The data are expressed as the average IC50 from different experiments.

[3] = molecular target: T1, Recombinant human TYK2 catalytic domain (amino acids 871-1187) (Homo sapiens, UniProt P29597); experiment: TYK2 ADPglo kinase assay; format: biochemical; also: 12 µM ATP
T1 construct: catalytic domain (amino acids 871-1187)
T1 sequence (P29597 871-1187): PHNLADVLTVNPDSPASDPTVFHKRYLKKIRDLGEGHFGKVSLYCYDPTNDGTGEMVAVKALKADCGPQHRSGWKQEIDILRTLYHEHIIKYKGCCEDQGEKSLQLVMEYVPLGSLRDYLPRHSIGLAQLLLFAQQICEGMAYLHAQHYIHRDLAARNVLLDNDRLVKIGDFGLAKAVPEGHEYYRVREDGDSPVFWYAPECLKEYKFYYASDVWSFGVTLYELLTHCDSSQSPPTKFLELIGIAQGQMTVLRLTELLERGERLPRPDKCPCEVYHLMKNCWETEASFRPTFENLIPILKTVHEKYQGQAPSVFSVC
Experimental: After 120 min at room temperature, reactions were stopped and the remaining ATP is depleted by adding 5 μL/well of ADP Glo Reagent (Promega, catalog number V912B). After 40 min at room temperature, 10 μl Kinase Detection Reagent (Kinase Detection Substrate (Promega, catalog number V914B) dissolved in Kinase Detection Buffer (Promega, catalog number V913B)) is added to convert ADP to ATP and to measure this newly synthesized ATP in a luciferase/luciferin reaction. Readout is performed after 30 min incubation at room temperature using the Envision. Kinase activity is calculated by subtracting the relative light units (RLU) obtained in the presence of a positive control inhibitor (10 μM staurosporine) from the RLU obtained in the presence of vehicle. The ability of a test compound to inhibit this activity (or percentage inhibition) is determined as:
RLU test compound=RLU determined for sample with test compound present
RLU control=RLU determined for sample with positive control inhibitor
RLU vehicle=RLU determined in the presence of vehicle
Dose dilution series were prepared for the compounds enabling the testing of dose-response effects in the TYK2 assay and the calculation of the IC50 for the compound. Each compound is routinely tested at concentration of 20 μM followed by a 1/5 serial dilution, 10 points in a final concentration of 1% DMSO. […] The data are expressed as the average IC50 from the assays.

IC50 [2]	IC50 [3]	Structure (SMILES)	IC50 [1]
539 nM		Cc1cc(C(F)(F)F)ncc1Oc1cc(Nc2cc(N)ncn2)c2ncn(C)c2n1 [Compound 1, N-[3-Methyl-5-(4-methyl-6-trifluoromethyl-pyridin-3-yloxy)-3H-imidazo[4,5-b]pyridin-7-yl]-pyrimidine-4,6-diamine]	85.5 nM
233 nM		Cc1cc(C#N)ncc1Nc1cc(Nc2ccc(C(=O)N(C)C)cn2)c2ncn(C)c2n1 [Compound 67, 6-[[5-[(6-cyano-4-methyl-3-pyridyl)amino]-3-methyl-imidazo[4,5-b]pyridin-7-yl]amino]-N,N-dimethyl-pyridine-3-carboxamide]	51 nM
1440 nM		Cc1cc(C#N)ncc1Oc1cc(Nc2ccc(S(=O)(=O)C(F)F)cc2)c2ncn(C)c2n1 [Compound 68, 5-[7-[4-(difluoromethylsulfonyl)anilino]-3-methyl-imidazo[4,5-b]pyridin-5-yl]oxy-4-methyl-pyridine-2-carbonitrile]	128 nM
204 nM		Cc1cc(C#N)ncc1Oc1cc(Nc2ccc(S(=O)(=O)C3CC3)cc2)c2ncn(C)c2n1 [Compound 69, 5-[7-(4-cyclopropylsulfonylanilino)-3-methyl-imidazo[4,5-b]pyridin-5-yl]oxy-4-methyl-pyridine-2-carbonitrile]	90 nM
90.1 nM	0.11 nM	Cc1cc(C#N)ncc1N(c1cc(Nc2cc(N)ncn2)c2ncn(C)c2n1)C1CC1 [Compound 88, 5-[[7-[(6-aminopyrimidin-4-yl)amino]-3-methyl-imidazo[4,5-b]pyridin-5-yl]-cyclopropyl-amino]-4-methyl-pyridine-2-carbonitrile]	14 nM
282 nM	0.58 nM	Cn1cnc2c(Nc3ccc(S(C)(=O)=O)cn3)cc(NC(C3CC3)C(F)(F)F)nc21 (stereo not shown) [Compound 92, N5-(1-cyclopropyl-2,2,2-trifluoro-ethyl)-3-methyl-N7-(5-methylsulfonyl-2-pyridyl)imidazo[4,5-b]pyridine-5,7-diamine]	67 nM
201 nM		CC(C)C(Nc1cc(Nc2cc(N)ncn2)c2ncn(C)c2n1)C(F)(F)F (stereo not shown) [Compound 93, N7-(6-aminopyrimidin-4-yl)-3-methyl-N5-[2-methyl-1-(trifluoromethyl)propyl)imidazo[4,5-b]pyridine-5,7-diamine]	65 nM
